PubChem BioAssay AID1259407 (Chemical Carcinogenesis Research Information System (CCRIS), 2018)
Entries after “also recorded” stand apart in the source; their conditions may differ. Calls of active or inactive are those of the source. How the calls were made is not given here.

Test system: CCRIS mutagenicity, Ames/micronucleus/aberration tests
Assay: CCRIS mutagenicity studies
[1] = Test System: AMES SALMONELLA TYPHIMURIUM, Strain/Indicator: TA98, Metabolic Activation: NONE, Method: STANDARD PLATE
[2] = Test System: AMES SALMONELLA TYPHIMURIUM, Strain/Indicator: TA98, Metabolic Activation: RAT, LIVER, S-9, AROCLOR 1254, Method: STANDARD PLATE
[3] = Test System: AMES SALMONELLA TYPHIMURIUM, Strain/Indicator: TA100, Metabolic Activation: NONE, Method: STANDARD PLATE
[4] = Test System: AMES SALMONELLA TYPHIMURIUM, Strain/Indicator: TA100, Metabolic Activation: RAT, LIVER, S-9, AROCLOR 1254, Method: STANDARD PLATE
[5] = Test System: AMES SALMONELLA TYPHIMURIUM, Strain/Indicator: TA1535, Metabolic Activation: NONE, Method: STANDARD PLATE
[6] = Test System: AMES SALMONELLA TYPHIMURIUM, Strain/Indicator: TA1535, Metabolic Activation: RAT, LIVER, S-9, AROCLOR 1254, Method: STANDARD PLATE
[7] = Test System: AMES SALMONELLA TYPHIMURIUM, Strain/Indicator: TA1537, Metabolic Activation: NONE, Method: STANDARD PLATE
[8] = Test System: AMES SALMONELLA TYPHIMURIUM, Strain/Indicator: TA1537, Metabolic Activation: RAT, LIVER, S-9, AROCLOR 1254, Method: STANDARD PLATE
[9] = Test System: AMES SALMONELLA TYPHIMURIUM, Strain/Indicator: TA100, Metabolic Activation: NONE, Method: PREINCUBATION

## C[C@]12CC[C@@H]3c4ccc(O)cc4CC[C@H]3[C@@H]1CC[C@@H]2O
End Point: IN VITRO CHROMOSOMAL ABERRATIONS, Test System: CHINESE HAMSTER CELL DON (22;XY), Metabolic Activation: NONE
  mutagenic call: active; positive (ploidy changes)
End Point: IN VITRO CHROMOSOMAL ABERRATIONS, Test System: CHO CELLS, Metabolic Activation: NONE
  mutagenic call: active; positive (structural changes)
End Point: IN VITRO CHROMOSOMAL ABERRATIONS, Test System: HUMAN LYMPHOCYTES, Metabolic Activation: NONE, Method: FISH
  mutagenic call: active; positive (ploidy changes in chromosomes 1, 9, 16); also recorded: active; positive (ploidy changes in chromosomes 7 and 9)
End Point: IN VITRO CHROMOSOMAL ABERRATIONS, Test System: HUMAN PERIPHERAL LYMPHOCYTES, Metabolic Activation: RAT, LIVER, S-9, AROCLOR 1254
  mutagenic call: inactive; negative
End Point: IN VITRO CHROMOSOMAL ABERRATIONS, Test System: HUMAN PERIPHERAL LYMPHOCYTES, Metabolic Activation: RAT, LIVER, S-9, PHENOBARBITONE
  mutagenic call: active; positive
End Point: IN VITRO CHROMOSOMAL ABERRATIONS, Test System: SYRIAN HAMSTER EMBRYO (SHE) CELLS, Metabolic Activation: NONE
  mutagenic call: active; positive (ploidy changes)
End Point: IN VITRO MICRONUCLEUS, Test System: HUMAN PERIPHERAL BLOOD LYMPHOCYTES, Metabolic Activation: NONE
  mutagenic call: active; positive
End Point: IN VITRO MICRONUCLEUS, Test System: HUMAN PERIPHERAL LYMPHOCYTES, Metabolic Activation: NONE
  mutagenic call: active; positive
End Point: IN VIVO MICRONUCLEUS, Test System: BONE MARROW POLYCHROMATIC ERYTHROCYTES, Species: MOUSE, Strain/Sex: B6C3F1/MALE, FEMALE, Route: IP INJECTION
  mutagenic call: inactive; negative
End Point: IN VIVO MICRONUCLEUS, Test System: BONE MARROW POLYCHROMATIC ERYTHROCYTES, Species: MOUSE, Strain/Sex: B6C3F1/MALE, Route: IP INJECTION
  mutagenic call: inactive; negative
End Point: IN VIVO MICRONUCLEUS, Test System: BONE MARROW POLYCHROMATIC ERYTHROCYTES, Species: MOUSE, Strain/Sex: CBA/MALE, Route: IP
  mutagenic call: inactive; negative
End Point: IN VIVO MICRONUCLEUS, Test System: BONE MARROW POLYCHROMATIC ERYTHROCYTES, Species: RAT, Strain/Sex: F344/MALE, Route: IP INJECTION
  mutagenic call: inactive; negative
Test System: AMES SALMONELLA TYPHIMURIUM, Strain/Indicator: TA98, Metabolic Activation: MOUSE, LIVER, S-9, Method: STANDARD PLATE
  mutagenic call: inactive; negative
[1]
  mutagenic call: inactive; negative
[2]
  mutagenic call: inactive; negative
Test System: AMES SALMONELLA TYPHIMURIUM, Strain/Indicator: TA100, Metabolic Activation: MOUSE, LIVER, S-9, Method: STANDARD PLATE
  mutagenic call: inactive; negative
[3]
  mutagenic call: inactive; negative
[4]
  mutagenic call: inactive; negative
Test System: AMES SALMONELLA TYPHIMURIUM, Strain/Indicator: TA1535, Metabolic Activation: MOUSE, LIVER, S-9, Method: STANDARD PLATE
  mutagenic call: inactive; negative
[5]
  mutagenic call: inactive; negative
[6]
  mutagenic call: inactive; negative
Test System: AMES SALMONELLA TYPHIMURIUM, Strain/Indicator: TA1537, Metabolic Activation: MOUSE, LIVER, S-9, Method: STANDARD PLATE
  mutagenic call: inactive; negative
[7]
  mutagenic call: inactive; negative
[8]
  mutagenic call: inactive; negative
Test System: AMES SALMONELLA TYPHIMURIUM, Strain/Indicator: TA1538, Metabolic Activation: MOUSE, LIVER, S-9, Method: STANDARD PLATE
  mutagenic call: inactive; negative
Test System: AMES SALMONELLA TYPHIMURIUM, Strain/Indicator: TA1538, Metabolic Activation: NONE, Method: STANDARD PLATE
  mutagenic call: inactive; negative
Test System: AMES SALMONELLA TYPHIMURIUM, Strain/Indicator: TA1538, Metabolic Activation: RAT, LIVER, S-9, AROCLOR 1254, Method: STANDARD PLATE
  mutagenic call: inactive; negative
Test System: CHINESE HAMSTER V-79, Strain/Indicator: V-79 (HPRT)/6-THIOGUANINE, Metabolic Activation: NONE
  mutagenic call: inactive; negative
Test System: CHINESE HAMSTER V-79, Strain/Indicator: V-79 (HPRT)/6-THIOGUANINE, Metabolic Activation: NONE, Method: SUSPENSION/PLATE
  mutagenic call: active; positive
Test System: UDS RAT HEPATOCYTES, Strain/Indicator: THY INCORP (18-20 HR), Metabolic Activation: NONE, Method: LIQUID SCINTILLATION COUNTING
  mutagenic call: inactive; negative

## Cc1ccccc1N=Nc1ccc(N=Nc2c(O)ccc3ccccc23)c(C)c1
Test System: AMES SALMONELLA TYPHIMURIUM, Strain/Indicator: TA98, Metabolic Activation: HAMSTER, LIVER, S-9, Method: PREINCUBATION (PRIVAL METHOD)
  mutagenic call: active; positive
[1]
  mutagenic call: inactive; negative
[3]
  mutagenic call: inactive; negative

## NCCc1c[nH]c2ccc(O)cc12
[9]
  mutagenic call: inactive; negative

## Cc1ccc(N=CN(C)C=Nc2ccc(C)cc2C)c(C)c1
Test System: AMES SALMONELLA TYPHIMURIUM, Strain/Indicator: TA97, Metabolic Activation: NONE, Method: STANDARD PLATE
  mutagenic call: inactive; negative
Test System: AMES SALMONELLA TYPHIMURIUM, Strain/Indicator: TA97, Metabolic Activation: RAT, LIVER, S-9, AROCLOR 1254, Method: STANDARD PLATE
  mutagenic call: inactive; negative
[1]
  mutagenic call: inactive; negative
[2]
  mutagenic call: inactive; negative
[3]
  mutagenic call: inactive; negative
[4]
  mutagenic call: inactive; negative
Test System: AMES SALMONELLA TYPHIMURIUM, Strain/Indicator: TA102, Metabolic Activation: NONE, Method: STANDARD PLATE
  mutagenic call: inactive; negative
Test System: AMES SALMONELLA TYPHIMURIUM, Strain/Indicator: TA102, Metabolic Activation: RAT, LIVER, S-9, AROCLOR 1254, Method: STANDARD PLATE
  mutagenic call: inactive; negative

## COC(=O)CCC(=O)OC
Test System: AMES SALMONELLA TYPHIMURIUM, Strain/Indicator: TA97, Metabolic Activation: HAMSTER, LIVER, S-9, AROCLOR 1254 (10 OR 30%), Method: PREINCUBATION
  mutagenic call: inactive; negative
Test System: AMES SALMONELLA TYPHIMURIUM, Strain/Indicator: TA97, Metabolic Activation: NONE, Method: PREINCUBATION
  mutagenic call: inactive; negative
Test System: AMES SALMONELLA TYPHIMURIUM, Strain/Indicator: TA97, Metabolic Activation: RAT, LIVER, S-9, AROCLOR 1254 (10 OR 30%), Method: PREINCUBATION
  mutagenic call: inactive; negative
Test System: AMES SALMONELLA TYPHIMURIUM, Strain/Indicator: TA98, Metabolic Activation: HAMSTER, LIVER, S-9, AROCLOR 1254 (10 OR 30%), Method: PREINCUBATION
  mutagenic call: inactive; negative
Test System: AMES SALMONELLA TYPHIMURIUM, Strain/Indicator: TA98, Metabolic Activation: NONE, Method: PREINCUBATION
  mutagenic call: inactive; negative
[1]
  mutagenic call: inactive; negative
Test System: AMES SALMONELLA TYPHIMURIUM, Strain/Indicator: TA98, Metabolic Activation: RAT, LIVER, S-9, AROCLOR 1254 (10 OR 30%), Method: PREINCUBATION
  mutagenic call: inactive; negative
[2]
  mutagenic call: inactive; negative
Test System: AMES SALMONELLA TYPHIMURIUM, Strain/Indicator: TA100, Metabolic Activation: HAMSTER, LIVER, S-9, AROCLOR 1254 (10 OR 30%), Method: PREINCUBATION
  mutagenic call: inactive; negative
[9]
  mutagenic call: inactive; negative
[3]
  mutagenic call: inactive; negative
Test System: AMES SALMONELLA TYPHIMURIUM, Strain/Indicator: TA100, Metabolic Activation: RAT, LIVER, S-9, AROCLOR 1254 (10 OR 30%), Method: PREINCUBATION
  mutagenic call: inactive; negative
[4]
  mutagenic call: inactive; negative
Test System: AMES SALMONELLA TYPHIMURIUM, Strain/Indicator: TA1535, Metabolic Activation: HAMSTER, LIVER, S-9, AROCLOR 1254 (10 OR 30%), Method: PREINCUBATION
  mutagenic call: inactive; negative
Test System: AMES SALMONELLA TYPHIMURIUM, Strain/Indicator: TA1535, Metabolic Activation: NONE, Method: PREINCUBATION
  mutagenic call: inactive; negative
[5]
  mutagenic call: inactive; negative
Test System: AMES SALMONELLA TYPHIMURIUM, Strain/Indicator: TA1535, Metabolic Activation: RAT, LIVER, S-9, AROCLOR 1254 (10 OR 30%), Method: PREINCUBATION
  mutagenic call: inactive; negative
[6]
  mutagenic call: inactive; negative
[7]
  mutagenic call: inactive; negative
[8]
  mutagenic call: inactive; negative
